Key:
mouse Piezo1 = molecular target: T1, mouse Piezo1 (Mus musculus, UniProt E2JF22); test: Fura-2 intracellular Ca2+ assay, 96-well plate reader; assay type: cell-based
T1 construct: the Dooku1 and ruthenium red rows are from native C57BL/6J cardiac fibroblasts

[1] = molecular target: T2, Piezo1 (human cardiac fibroblasts, endogenous) (Homo sapiens, UniProt Q92508); test: as above; assay type: cell-based; conditions: activator (agonist); native human cardiac fibroblasts; 2.5 mM probenecid, 1.5 mM CaCl2, pH 7.4; estimate, Yoda1 limited to 10 μM by solubility
T2 construct: endogenous full-length channel in cultured human atrial cardiac fibroblasts; Yoda1 response reduced by Piezo1 siRNA
T2 sequence (Q92508 whole entry): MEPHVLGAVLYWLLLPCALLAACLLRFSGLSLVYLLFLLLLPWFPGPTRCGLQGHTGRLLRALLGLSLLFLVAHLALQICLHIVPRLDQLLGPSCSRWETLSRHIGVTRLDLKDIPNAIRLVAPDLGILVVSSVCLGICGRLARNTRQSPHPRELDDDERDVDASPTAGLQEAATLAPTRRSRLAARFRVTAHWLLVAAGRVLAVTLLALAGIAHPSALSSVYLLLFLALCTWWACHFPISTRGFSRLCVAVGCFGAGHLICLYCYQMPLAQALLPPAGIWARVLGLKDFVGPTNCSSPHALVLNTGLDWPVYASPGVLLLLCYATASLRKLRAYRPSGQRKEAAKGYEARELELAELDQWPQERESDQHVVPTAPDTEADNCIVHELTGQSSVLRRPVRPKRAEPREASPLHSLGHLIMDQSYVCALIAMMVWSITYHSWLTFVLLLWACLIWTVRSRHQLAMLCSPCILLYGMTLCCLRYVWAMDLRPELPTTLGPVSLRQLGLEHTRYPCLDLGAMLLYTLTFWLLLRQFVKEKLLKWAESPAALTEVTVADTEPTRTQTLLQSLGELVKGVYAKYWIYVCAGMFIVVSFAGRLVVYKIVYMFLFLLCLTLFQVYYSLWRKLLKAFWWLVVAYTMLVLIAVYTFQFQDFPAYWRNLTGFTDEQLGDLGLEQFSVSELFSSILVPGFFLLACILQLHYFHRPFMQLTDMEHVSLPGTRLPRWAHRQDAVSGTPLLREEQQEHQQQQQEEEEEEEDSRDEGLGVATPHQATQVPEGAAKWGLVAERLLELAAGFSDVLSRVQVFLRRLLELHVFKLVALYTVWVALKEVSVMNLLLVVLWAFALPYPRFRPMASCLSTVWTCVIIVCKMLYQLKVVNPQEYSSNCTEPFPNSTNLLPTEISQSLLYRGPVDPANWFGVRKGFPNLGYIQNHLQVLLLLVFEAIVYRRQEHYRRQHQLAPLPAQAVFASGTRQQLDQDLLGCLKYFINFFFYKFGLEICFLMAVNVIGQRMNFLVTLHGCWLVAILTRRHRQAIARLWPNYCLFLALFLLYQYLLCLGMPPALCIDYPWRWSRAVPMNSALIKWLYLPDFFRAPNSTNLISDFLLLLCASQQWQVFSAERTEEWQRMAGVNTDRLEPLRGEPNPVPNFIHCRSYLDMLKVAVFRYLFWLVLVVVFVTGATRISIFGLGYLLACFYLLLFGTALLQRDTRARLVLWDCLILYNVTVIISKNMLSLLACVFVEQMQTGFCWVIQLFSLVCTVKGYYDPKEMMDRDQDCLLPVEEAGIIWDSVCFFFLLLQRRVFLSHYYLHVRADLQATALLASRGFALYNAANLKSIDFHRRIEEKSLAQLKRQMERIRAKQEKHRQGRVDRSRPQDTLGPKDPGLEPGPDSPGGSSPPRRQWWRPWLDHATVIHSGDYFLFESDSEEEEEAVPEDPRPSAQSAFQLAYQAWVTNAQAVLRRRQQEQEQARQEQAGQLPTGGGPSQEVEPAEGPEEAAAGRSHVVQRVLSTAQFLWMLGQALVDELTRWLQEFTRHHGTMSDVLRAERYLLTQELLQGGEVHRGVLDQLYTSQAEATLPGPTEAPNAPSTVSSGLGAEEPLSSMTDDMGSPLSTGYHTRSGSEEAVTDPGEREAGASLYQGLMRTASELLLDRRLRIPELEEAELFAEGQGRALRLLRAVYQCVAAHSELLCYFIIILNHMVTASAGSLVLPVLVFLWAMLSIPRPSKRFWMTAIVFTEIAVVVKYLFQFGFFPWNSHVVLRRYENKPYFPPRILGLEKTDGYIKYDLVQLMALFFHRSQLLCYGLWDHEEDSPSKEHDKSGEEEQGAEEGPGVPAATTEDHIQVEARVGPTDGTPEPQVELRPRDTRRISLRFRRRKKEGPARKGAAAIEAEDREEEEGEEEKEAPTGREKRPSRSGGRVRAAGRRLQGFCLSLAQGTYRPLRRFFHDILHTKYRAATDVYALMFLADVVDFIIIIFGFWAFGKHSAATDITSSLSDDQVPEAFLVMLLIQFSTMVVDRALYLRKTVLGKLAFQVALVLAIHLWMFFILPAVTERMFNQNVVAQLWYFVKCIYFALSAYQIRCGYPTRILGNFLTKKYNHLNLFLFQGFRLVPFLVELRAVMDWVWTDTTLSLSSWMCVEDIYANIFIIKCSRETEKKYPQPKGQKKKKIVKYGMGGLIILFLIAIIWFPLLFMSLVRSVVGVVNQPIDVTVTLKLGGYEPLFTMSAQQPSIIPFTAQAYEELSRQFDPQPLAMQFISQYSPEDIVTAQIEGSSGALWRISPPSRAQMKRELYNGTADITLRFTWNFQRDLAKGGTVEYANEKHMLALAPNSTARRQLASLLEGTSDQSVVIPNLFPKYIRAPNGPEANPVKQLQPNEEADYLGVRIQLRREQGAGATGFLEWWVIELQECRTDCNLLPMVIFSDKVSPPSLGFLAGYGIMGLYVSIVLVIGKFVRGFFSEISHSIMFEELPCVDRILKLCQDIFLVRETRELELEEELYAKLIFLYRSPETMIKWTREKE

T1 sequence (E2JF22 whole entry): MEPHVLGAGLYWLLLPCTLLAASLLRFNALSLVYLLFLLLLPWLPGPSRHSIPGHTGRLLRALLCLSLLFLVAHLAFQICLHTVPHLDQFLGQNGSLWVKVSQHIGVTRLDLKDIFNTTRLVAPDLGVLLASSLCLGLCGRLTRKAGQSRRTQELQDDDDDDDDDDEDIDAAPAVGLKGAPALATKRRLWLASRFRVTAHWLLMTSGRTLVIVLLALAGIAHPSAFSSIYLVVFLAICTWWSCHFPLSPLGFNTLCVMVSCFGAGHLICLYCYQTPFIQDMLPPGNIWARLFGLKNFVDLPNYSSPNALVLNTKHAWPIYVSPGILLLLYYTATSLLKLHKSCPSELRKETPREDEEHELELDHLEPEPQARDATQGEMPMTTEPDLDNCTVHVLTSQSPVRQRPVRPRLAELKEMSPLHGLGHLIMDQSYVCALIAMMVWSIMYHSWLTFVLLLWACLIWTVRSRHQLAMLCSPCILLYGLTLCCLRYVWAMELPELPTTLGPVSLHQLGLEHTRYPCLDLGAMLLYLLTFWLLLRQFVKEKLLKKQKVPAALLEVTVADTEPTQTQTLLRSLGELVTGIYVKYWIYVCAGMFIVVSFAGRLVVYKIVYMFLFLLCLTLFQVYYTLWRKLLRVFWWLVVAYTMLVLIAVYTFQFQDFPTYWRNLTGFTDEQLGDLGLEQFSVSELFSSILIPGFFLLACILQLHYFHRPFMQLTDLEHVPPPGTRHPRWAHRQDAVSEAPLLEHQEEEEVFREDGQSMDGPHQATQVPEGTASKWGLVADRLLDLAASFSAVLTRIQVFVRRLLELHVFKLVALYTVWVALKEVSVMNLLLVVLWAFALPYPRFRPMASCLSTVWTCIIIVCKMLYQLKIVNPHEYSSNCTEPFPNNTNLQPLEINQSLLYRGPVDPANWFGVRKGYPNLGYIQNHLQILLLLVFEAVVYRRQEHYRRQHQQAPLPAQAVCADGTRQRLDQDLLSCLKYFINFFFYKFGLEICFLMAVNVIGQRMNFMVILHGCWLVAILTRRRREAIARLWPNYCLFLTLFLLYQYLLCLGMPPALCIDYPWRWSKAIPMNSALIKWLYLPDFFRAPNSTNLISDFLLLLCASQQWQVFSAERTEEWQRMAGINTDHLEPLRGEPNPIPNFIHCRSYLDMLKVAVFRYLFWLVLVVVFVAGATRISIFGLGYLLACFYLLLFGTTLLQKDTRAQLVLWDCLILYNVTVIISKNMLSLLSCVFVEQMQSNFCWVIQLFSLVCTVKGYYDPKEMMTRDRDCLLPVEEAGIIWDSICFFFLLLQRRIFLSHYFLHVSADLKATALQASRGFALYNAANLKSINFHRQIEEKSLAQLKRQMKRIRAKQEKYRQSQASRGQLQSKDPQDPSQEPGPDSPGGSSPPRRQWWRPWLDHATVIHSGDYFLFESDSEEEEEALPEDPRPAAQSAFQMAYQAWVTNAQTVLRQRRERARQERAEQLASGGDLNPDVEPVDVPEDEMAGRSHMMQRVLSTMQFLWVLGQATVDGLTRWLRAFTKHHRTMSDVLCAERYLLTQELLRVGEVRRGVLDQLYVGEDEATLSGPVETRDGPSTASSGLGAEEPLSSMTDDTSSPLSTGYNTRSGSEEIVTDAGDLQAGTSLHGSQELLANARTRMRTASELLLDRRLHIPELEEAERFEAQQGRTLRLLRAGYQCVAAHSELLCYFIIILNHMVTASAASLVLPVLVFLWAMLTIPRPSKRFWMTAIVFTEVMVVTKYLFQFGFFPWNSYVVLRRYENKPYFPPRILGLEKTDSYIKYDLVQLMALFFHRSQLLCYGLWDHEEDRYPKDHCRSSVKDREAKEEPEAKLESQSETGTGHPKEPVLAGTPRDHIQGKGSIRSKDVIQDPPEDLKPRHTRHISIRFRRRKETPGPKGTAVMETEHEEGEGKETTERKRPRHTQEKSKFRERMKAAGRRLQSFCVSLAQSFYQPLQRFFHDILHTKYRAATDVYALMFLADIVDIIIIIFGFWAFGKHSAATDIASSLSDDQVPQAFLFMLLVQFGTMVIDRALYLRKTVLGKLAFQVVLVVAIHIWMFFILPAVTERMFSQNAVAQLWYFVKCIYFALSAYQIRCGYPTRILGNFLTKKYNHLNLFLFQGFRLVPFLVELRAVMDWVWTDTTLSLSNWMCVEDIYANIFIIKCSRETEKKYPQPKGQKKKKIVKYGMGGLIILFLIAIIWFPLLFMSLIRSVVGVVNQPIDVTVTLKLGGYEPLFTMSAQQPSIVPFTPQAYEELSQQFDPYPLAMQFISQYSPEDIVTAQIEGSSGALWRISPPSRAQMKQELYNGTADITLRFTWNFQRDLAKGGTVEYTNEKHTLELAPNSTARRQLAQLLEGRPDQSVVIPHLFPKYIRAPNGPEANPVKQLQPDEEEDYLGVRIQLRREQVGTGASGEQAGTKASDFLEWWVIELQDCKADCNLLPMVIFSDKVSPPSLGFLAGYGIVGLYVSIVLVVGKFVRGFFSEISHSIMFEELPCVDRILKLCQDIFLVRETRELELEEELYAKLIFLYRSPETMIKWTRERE

EC50 (mouse Piezo1): 330 nM | EC50 [1]: 710 nM
Compound: Clc1cccc(Cl)c1CSc1nnc(-c2cnccn2)s1 [Yoda1]
